Laboratory results from ChEMBL document CHEMBL1128009, “Stereoselectivity of the positive inotropic effects of newer diazinone-cardiotonics” (Bioorg Med Chem Lett, 1994).

Assays:
[1] = Calcium sensitizing activity; assay type: functional
Phosphodiesterase 3 = Phosphodiesterase 3 (Homo sapiens, UniProt Q14432+Q13370); experiment: Inhibition of phosphodiesterase 3; assay type: protein assay
[2] = Calcium sensitizing activity (Active); assay type: functional
[3] = Calcium sensitizing activity (No Effect); assay type: functional

| Compound | EC50 [1] [µM] | IC50 (Phosphodiesterase 3) [µM] | EC50 [2] | EC50 [3] |
| --- | --- | --- | --- | --- |
| COc1ccc(C(=O)N2CCCc3cc(C4=NNC(=O)SC4C)ccc32)cc1OC (single isomer, unassigned; (+)) | 1.7 |  |  |  |
| CC1CC(=O)NN=C1c1ccc2[nH]c(-c3cc[nH]n3)nc2c1 (single isomer, unassigned; (+)) [MERIBENDAN] | 470 | 1.6 |  |  |
| COc1ccc(-c2nc3cc(C4=NNC(=O)CC4C)ccc3[nH]2)cc1 (single isomer, unassigned; (+)) [PIMOBENDAN] | 152 |  |  |  |
| COc1ccc(C(=O)N2CCCc3cc(C4=NNC(=O)SC4C)ccc32)cc1OC (single isomer, unassigned; (-)) | > 100 |  |  |  |
| CC1CC(=O)NN=C1c1ccc2[nH]c(-c3cc[nH]n3)nc2c1 (single isomer, unassigned; (-)) [MERIBENDAN] | 190 | 0.04 |  |  |
| COc1ccc(-c2nc3cc(C4=NNC(=O)CC4C)ccc3[nH]2)cc1 (stereo in doubt) [PIMOBENDAN] | 100 |  |  |  |
| CC1CC(=O)NN=C1c1cc2ccc(OCCN3CCCCC3)cc2s1 (stereo in doubt; (+)) |  | 14.8 | Active |  |
| CC1CC(=O)NN=C1c1cc2ccc(OCCN3CCCCC3)cc2s1 (stereo in doubt; (-)) |  | 0.08 |  | Not Active |
| C[C@@H]1CC(=O)NN=C1c1ccc(NN=C(C#N)C#N)cc1 [LEVOSIMENDAN] | > 100 | 0.008 |  |  |
| CC1CC(=O)NN=C1c1ccc(NN=C(C#N)C#N)cc1 (stereo unspecified) [SIMENDAN] | > 100 | 1.5 |  |  |
